Assay results: patent US20190031665A1, “DERIVATIVES OF PYRROLOIMIDAZOLE OR ANALOGUES THEREOF WHICH ARE USEFUL FOR THE TREATMENT OF INTER ALIA CANCER” (EMCURE PHARMACEUTICALS LIMITED, priority 2016, published 2019)

How the values were obtained:
[1] = target: T1, human indoleamine 2,3-dioxygenase 1 (hIDO1) (Homo sapiens, UniProt P14902); assay: In-vitro human indoleamine 2,3-dioxygenase 1 (IDO1) enzyme assay; type: biochemical; conditions: for inhibition at 1 µM: hIDO1 enzyme at 1.0 μM concentration; for inhibition at 10 µM: hIDO1 enzyme at 10.0 μM concentration; for IC50: hIDO1 enzyme
T1 construct: His tag (N); purchased BPS Bioscience, San Diego, Calif., USA; host or cells: E. coli
T1 sequence (P14902 whole entry): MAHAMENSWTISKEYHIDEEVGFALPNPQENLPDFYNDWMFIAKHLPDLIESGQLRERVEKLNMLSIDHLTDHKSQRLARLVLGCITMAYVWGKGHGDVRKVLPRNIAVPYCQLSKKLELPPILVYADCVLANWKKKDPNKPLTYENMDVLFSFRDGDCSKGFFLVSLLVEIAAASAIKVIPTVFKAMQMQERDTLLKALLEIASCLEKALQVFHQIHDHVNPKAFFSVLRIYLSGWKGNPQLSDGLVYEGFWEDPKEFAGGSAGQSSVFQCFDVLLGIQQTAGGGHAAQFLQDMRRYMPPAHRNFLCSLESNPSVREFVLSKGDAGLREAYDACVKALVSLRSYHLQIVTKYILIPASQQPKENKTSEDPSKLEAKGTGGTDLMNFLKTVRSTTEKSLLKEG
Procedure: (§1) In-vitro human indoleamine 2,3-dioxygenase 1 (IDO1) enzyme assay: In the in-vitro human indoleamine 2,3-dioxygenase 1 (hIDO1) enzyme assay for screening inhibitor compounds, hIDO1 with an N-terminal histidine tag expressed and purified from E. coli (BPS Bioscience, San Diego, Calif., USA) was used. All other materials were procured from Sigma-Aldrich, St. Louis, Mo., USA.
The assay method for monitoring the conversion of L-tryptophan to N-formylkynurenine by hlDO1 was carried out as follows. hlDO1 (50 ng) was incubated with tryptophan (80 μM) in the presence of ascorbic acid (10 mM), methylene blue (10 μM), catalase (100 μg/ml) and 0.01% Tween-20 in sodium phosphate buffer (50 mM; pH 6.5) at 37° C. for 60 min. The reaction was terminated with 200 mM piperidine (PIP) and further incubated at about 65° C. for about 20 minutes to convert N-formylkynurenine (NFK) to NFK-PIP. The reaction mixture was then incubated at room temperature for about 1 hour. The fluorescence intensity was read in a fluorescence microplate reader at an excitation wavelength of 400 nm and emission wavelength of 500 nm. Percent inhibition at each concentration of test compounds was determined by estimating the decrease in NFK-PIP. Data were analyzed using nonlinear regression to generate IC50 values using Graph Pad Prism® 6.

[2] = target: T2, human tryptophan 2,3-dioxygenase (hTDO) (Homo sapiens, UniProt P48775); assay: In-vitro human tryptophan 2,3-dioxygenase (TDO) enzyme assay; type: biochemical; conditions: for inhibition at 1 µM: hTDO enzyme at 1.0 μM concentration
T2 construct: His tag (N); purchased BPS Bioscience, San Diego, Calif., USA; host or cells: E. coli
T2 sequence (P48775 whole entry): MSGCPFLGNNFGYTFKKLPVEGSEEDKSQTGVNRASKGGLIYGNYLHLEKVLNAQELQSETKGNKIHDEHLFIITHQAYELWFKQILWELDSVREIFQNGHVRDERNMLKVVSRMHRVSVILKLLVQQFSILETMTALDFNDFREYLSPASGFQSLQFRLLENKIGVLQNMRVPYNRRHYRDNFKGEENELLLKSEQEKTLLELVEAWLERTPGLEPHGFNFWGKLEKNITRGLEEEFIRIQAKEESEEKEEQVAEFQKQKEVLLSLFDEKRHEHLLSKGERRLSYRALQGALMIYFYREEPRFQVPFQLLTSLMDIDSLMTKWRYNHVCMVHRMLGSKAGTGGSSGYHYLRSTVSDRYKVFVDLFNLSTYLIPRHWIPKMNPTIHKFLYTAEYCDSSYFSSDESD
Procedure: as §1, with “In” for “In-vitro human indoleamine 2,3-dioxygenase 1 (IDO1) enzyme assay: In”, “tryptophan” for “indoleamine”, “(hTDO)” for “1 (hIDO1)”, “hTDO” for “hIDO1”
The assay monitoring method for the conversion of L-tryptophan to N-formylkynurenine by hTDO was carried out as follows. hTDO (125 ng) was incubated in the presence of 200 μM L-tryptophan, 100 mM sodium phosphate buffer (pH 7.0), 0.01% Tween-20 and 100 μM ascorbic acid at about 37° C. for about 60 minutes. The reaction was terminated with 200 mM piperidine (PIP) and further incubated at about 65° C. for about 20 minutes to convert N-formylkynurenine (NFK) to NFK-PIP. The reaction mixture was then incubated at room temperature for about 75 minutes. The fluorescence intensity was read in a fluorescence microplate reader at an excitation wavelength of 400 nm and emission wavelength of 500 nm. Percent inhibition at each concentration of test compounds was determined by estimating the decrease in NFK-PIP. Data were analyzed using nonlinear regression to generate IC50 values using Graph Pad Prism® 6.

| SMILES | inhibition at 1 µM [1] [%] | inhibition at 10 µM [1] [%] | inhibition at 1 µM [2] [%] | IC50 [1] [nM] | inhibition at 10 µM ([2]; hTDO enzyme at 10.0 μM concentration) [%] |
| --- | --- | --- | --- | --- | --- |
| CC1=C(c2ccccc2)C(CC(=O)c2ccc(N3CCCCC3)cc2)n2cncc21 (stereo not shown) [Example 50, 2-(7-methyl-6-phenyl-5H-pyrrolo[1,2-c]imidazol-5-yl)-1-(4-(piperidin-1-yl)phenyl)ethan-1-one] | ≤ 50 | ≥ 50 | ≥ 50 | – | – |
| CC1=C(c2ccccc2)C(CC(=O)c2ccc(Br)cc2)n2cncc21 (stereo not shown) [Example 51, 1-(4-bromophenyl)-2-(7-methyl-6-phenyl-5H-pyrrolo[1,2-c]imidazol-5-yl)ethan-1-one] | ≥ 50 | ≥ 50 | ≥ 50 | > 500 | – |
| CC1=C(c2ccccc2)C(CC(O)c2ccc(Br)cc2)n2cncc21 (stereo not shown) [Example 52, 1-(4-bromophenyl)-2-(7-methyl-6-phenyl-5H-pyrrolo[1,2-c]imidazol-5-yl)ethan-1-ol] | ≤ 50 | ≥ 50 | ≥ 50 | – | – |
| CC1=C(c2ccccc2)C(CC(=O)c2ccc(-c3ccncc3)cc2)n2cncc21 (stereo not shown) [Example 53] | ≥ 50 | ≥ 50 | ≥ 50 | < 500 | – |
| CC1=C(c2ccccc2)C(CC(=O)c2ccc(-c3cncnc3)cc2)n2cncc21 (stereo not shown) [Example 54] | ≥ 50 | ≥ 50 | ≥ 50 | – | – |
| CC1=C(c2ccccc2)C(CC(=O)c2ccc(-c3cccnc3)cc2)n2cncc21 (stereo not shown) [Example 55] | ≥ 50 | ≥ 50 | ≥ 50 | < 500 | – |
| CC1=C(c2ccccc2)C(CC(=O)c2ccc(-c3ccsc3)cc2)n2cncc21 (stereo not shown) [Example 56] | ≥ 50 | ≥ 50 | ≤ 50 | < 500 | – |
| CC1=C(c2ccccc2)C(CC(=O)c2ccc(-c3ccc(O)cc3)cc2)n2cncc21 (stereo not shown) [Example 57] | ≥ 50 | ≥ 50 | ≤ 50 | < 500 | – |
| CC1=C(c2ccccc2)C(CC(=O)c2ccc(-c3ccccc3F)cc2)n2cncc21 (stereo not shown) [Example 58] | ≥ 50 | ≥ 50 | ≤ 50 | < 500 | – |
| CC1=C(c2ccccc2)C(CC(O)c2ccc(-c3ccncc3)cc2)n2cncc21 (stereo not shown) [Example 59] | ≤ 50 | ≥ 50 | ≤ 50 | – | – |
| CC1=C(c2ccccc2)C(CC(O)c2ccc(-c3ccsc3)cc2)n2cncc21 (stereo not shown) [Example 60] | ≤ 50 | ≥ 50 | ≤ 50 | – | – |
| CC1=C(c2ccccc2)C(CC(=O)c2ccc(-c3ccc(C(F)(F)F)cc3)cc2)n2cncc21 (stereo not shown) [Example 61] | ≤ 50 | ≥ 50 | ≤ 50 | – | – |
| CC1=C(c2ccccc2)C(CC(=O)c2ccc(-c3ccc(C)cc3)cc2)n2cncc21 (stereo not shown) [Example 62] | ≥ 50 | ≥ 50 | ≥ 50 | < 500 | – |
| CC1=C(c2ccccc2)C(CC(=O)c2ccc(-c3ccc(F)cc3)cc2)n2cncc21 (stereo not shown) [Example 63] | ≥ 50 | ≥ 50 | ≥ 50 | – | – |
| CC1=C(c2ccccc2)C(CC(=O)c2ccc(-c3ccc(C)s3)cc2)n2cncc21 (stereo not shown) [Example 64] | ≥ 50 | ≥ 50 | ≤ 50 | < 500 | – |
| CC1=C(c2ccccc2)C(CC(=O)c2ccc(-c3ccc(-c4ccccc4)cc3)cc2)n2cncc21 (stereo not shown) [Example 65] | ≤ 50 | ≤ 50 | ≤ 50 | – | – |

| SMILES | inhibition at 1 µM [1] [%] | inhibition at 10 µM [1] [%] | inhibition at 1 µM [2] [%] | IC50 [1] [nM] | inhibition at 10 µM ([2]; hTDO enzyme at 10.0 μM concentration) [%] |
| --- | --- | --- | --- | --- | --- |
| CC1=C(c2ccccc2)C(CC(=O)c2ccc(-c3cnc[nH]3)cc2)n2cncc21 (stereo not shown) [Example 67] | ≥ 50 | ≥ 50 | ≥ 50 | > 500 | – |
| CC1=C(c2ccccc2)C(CC(=O)c2cccc(Br)c2)n2cncc21 (stereo not shown) [Example 68, 1-(3-Bromo-phenyl)-2-(7-methyl-6-phenyl-5H-pyrrolo[1,2-c]imidazol-5-yl)-ethanone] | ≥ 50 | ≥ 50 | ≥ 50 | – | – |
| CC1=C(c2ccccc2)C(CC(=O)c2cccc(-c3ccccc3)c2)n2cncc21 (stereo not shown) [Example 69] | ≥ 50 | ≥ 50 | ≤ 50 | > 500 | – |
| CC1=C(c2ccccc2)C(CC(=O)c2cccc(-c3ccccc3F)c2)n2cncc21 (stereo not shown) [Example 70] | ≥ 50 | ≥ 50 | ≥ 50 | – | – |
| CC1=C(c2ccccc2)C(CC(=O)c2ccc(C3CCCCC3)cc2)n2cncc21 (stereo not shown) [Example 73] | ≤ 50 | ≥ 50 | ≤ 50 | – | – |
| CC1=C(c2ccccc2)C(CC(O)c2ccc(C3CCCCC3)cc2)n2cncc21 (stereo not shown) [Example 74] | ≤ 50 | ≥ 50 | ≤ 50 | – | – |
| CC1=C(c2ccccc2)C(CC(=O)c2ccc(OCc3ccccc3)cc2)n2cncc21 (stereo not shown) [Example 75, 1-(4-(benzyloxy)phenyl)-2-(7-methyl-6-phenyl-5H-pyrrolo[1,2-c]imidazol-5-yl)ethan-1-one] | ≥ 50 | ≥ 50 | ≥ 50 | < 500 | – |
| CC1=C(c2ccccc2)C(CC(=O)c2ccc(Oc3ccccc3F)cc2)n2cncc21 (stereo not shown) [Example 76, 1-(4-(2-fluorophenoxy)phenyl)-2-(7-methyl-6-phenyl-5H-pyrrolo[1,2-c]imidazol-5-yl)ethan-1-one] | ≥ 50 | ≥ 50 | ≤ 50 | < 500 | – |
| CC1=C(c2ccccc2)C(CC(=O)c2ccc(C(=O)Nc3ccccc3)cc2)n2cncc21 (stereo not shown) [Example 77] | ≥ 50 | ≥ 50 | ≥ 50 | < 500 | – |
| CNC(=O)c1ccc(C(=O)CC2C(c3ccccc3)=C(C)c3cncn32)cc1 (stereo not shown) [Example 78] | ≥ 50 | ≥ 50 | ≥ 50 | – | ≥ 50 |
| CC1=C(c2ccccc2)C(CC(=O)c2ccc(C(=O)Nc3cccnc3)cc2)n2cncc21 (stereo not shown) [Example 79] | ≥ 50 | ≥ 50 | ≥ 50 | > 500 | – |
| CC1=C(c2ccccc2)C(CC(=O)c2ccc(C(=O)Nc3ccc(Cl)cc3)cc2)n2cncc21 (stereo not shown) [Example 80] | ≥ 50 | ≥ 50 | ≥ 50 | – | – |
| CC1=C(c2ccccc2)C(CC(=O)c2ccc(C(=O)Nc3ccc(F)cc3F)cc2)n2cncc21 (stereo not shown) [Example 81] | ≥ 50 | ≥ 50 | ≥ 50 | < 500 | – |
| CC1=C(c2ccccc2)C(CC(O)c2ccc(C(=O)Nc3ccc(Cl)cc3)cc2)n2cncc21 (stereo not shown) [Example 82] | ≤ 50 | ≥ 50 | ≤ 50 | – | – |
| CC1=C(c2ccccc2)C(CC(=O)c2ccc(C(=O)Nc3ccc(C)cc3C)cc2)n2cncc21 (stereo not shown) [Example 84] | ≥ 50 | ≥ 50 | ≥ 50 | – | – |
| CC1=C(c2ccc(C)cc2)C(CC(=O)C2CCCCC2)n2cncc21 (stereo not shown) [Example 86, 1-Cyclohexyl-2-(7-methyl-6-(p-tolyl)-5H-pyrrolo[1,2-c]imidazol-5-yl)ethan-1-one] | ≤ 50 | ≤ 50 | ≥ 50 | – | – |
